Source: US20040077624A1, “Novel combination” (Pfizer Inc., priority 2002, published 2004)

Test system: spontaneously hypertensive rat (SHR)
Experiment: Animal study: haemodynamic parameters in spontaneously hypertensive rats under continuous infusion
Type: in vivo
Details: male SHR; continuous infusion 0.4 mL/h over 4 days; enalapril 7.5 μg/mL, PDE5 inhibitor 200 μg/mL; difference from the vehicle response
Procedure: The spontaneously hypertensive rat (SHR) is a widely used model of human hypertension. Male SHRs (20-22 weeks old) were instrumented with Doppler flow probes for the measurement of mesenteric, hindquarters and renal blood flow, aortic blood pressure and heart rate according to published methods (Gardiner, S M et al.; Br. J. Pharmacol. 132(8), 1625-1629, 2001).
Solutions of enalapril (7.5 μg/mL), PDE5 inhibitor (200μg/mL) and a combination of enalapril and PDE5 inhibitor (7.5μg/mL+200 μg/mL) were infused at a rate of 0.4 mL/h throughout the experimental period. Control animals received compound vehicle; isotonic saline adjusted to pH 4 with hydrochloric acid.
Baseline haemodynamic parameters were recorded. Animals (n=7 or 8/group) were randomised then treated with the drug solution by continuous infusion over 4 days. Changes in haemodynamic parameters were monitored during the study period for 7h on each day.

Compound | Change in aortic conductance | Change in mesenteric conductance | Change in renal conductance | Overall change in mean BP [mmHg]
CCOC(=O)[C@H](CCc1ccccc1)N[C@@H](C)C(=O)N1CCC[C@H]1C(=O)O [Enalapril, enalapril] | +3.7% | +22.4% | +14.2% | −2.4
CCc1c2nc(-c3cc(S(=O)(=O)N4CCN(CC)CC4)cnc3OCCOC)[nH]c(=O)c2nn1Cc1ccccn1 [PDE5 inhibitor, 3-ethyl-5-[5-(4-ethylpiperazin-1-ylsulphonyl)-2-(2-methoxyethoxy)pyridin-3-yl]-2-(pyridin-2-yl)methyl-2,6-dihydro-7H-pyrazolo[4,3-d]pyrimidin-7-one] | +19.8% | +22.1% | −0.8% | −12.1
